Reference: PubChem BioAssay AID328 (DTP/NCI, 2004)
“And” between values parts separate entries of the source, which are not always exact repeats. Equal entries are not always repeated. Toxic doses and inconclusive results are not listed.

System: BDF1 mice, P388 leukemia ip, median survival T/C
Assay: NCI In Vivo Anticancer Drug Screen. Data for tumor model P388 Leukemia (intraperitoneal) in B6D2F1 (BDF1) mice
Conditions: endpoint: median survival time, higher = longer survival
In short: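 Each value expresses how treatment altered survival: treated-mouse outcome over vehicle-mouse outcome, both groups bearing the transplanted tumour.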

[1] = dose: 50.0 mg/kg/injection, schedule: Q04DX003 (ip), vehicle: water
[2] = dose: 100.0 mg/kg/injection, schedule: Q04DX003 (ip), vehicle: water
[3] = dose: 50.0 mg/kg/injection, schedule: Q01DX009 (ip), vehicle: saline with Tween-80
[4] = dose: 200.0 mg/kg/injection, schedule: Q01DX009 (ip), vehicle: saline with Tween-80
[5] = dose: 100.0 mg/kg/injection, schedule: Q01DX009 (ip), vehicle: saline with Tween-80
[6] = dose: 400.0 mg/kg/injection, schedule: Q01DX009 (ip), vehicle: saline with Tween-80
[7] = dose: 2.5 mg/kg/injection, schedule: Q01DX009 (ip), vehicle: Klucel (hydroxypropylcellulose) (HPC)
[8] = dose: 5.0 mg/kg/injection, schedule: Q01DX009 (ip), vehicle: Klucel (hydroxypropylcellulose) (HPC)
[9] = dose: 50.0 mg/kg/injection, schedule: Q04DX003 (ip), vehicle: saline with Tween-80
[10] = dose: 100.0 mg/kg/injection, schedule: Q04DX003 (ip), vehicle: saline with Tween-80
[11] = dose: 200.0 mg/kg/injection, schedule: Q04DX003 (ip), vehicle: saline with Tween-80
[12] = dose: 400.0 mg/kg/injection, schedule: Q04DX003 (ip), vehicle: saline with Tween-80
[13] = dose: 25.0 mg/kg/injection, schedule: Q01DX009 (ip), vehicle: saline with Tween-80

Cc1c[n+]([O-])ccc1Br
T/C (dose: 6.25 mg/kg/injection, schedule: Q04DX003 (ip), vehicle: water): 100 % of control
T/C (dose: 12.5 mg/kg/injection, schedule: Q04DX003 (ip), vehicle: water): 100 % of control
T/C (dose: 25.0 mg/kg/injection, schedule: Q04DX003 (ip), vehicle: water): 112 % of control
T/C [1]: 99 % of control
T/C [2]: 100 % of control

S=C(N/N=C1\CSCc2ccccc21)Nc1cc(Cl)ccc1Cl
T/C [3]: 90 % of control
T/C [4]: 88 % of control

O=C(/C=C/c1ccccc1)c1ccccc1
T/C [3]: 106 % of control
T/C [5]: 104 % of control
T/C [4]: 108 % of control
T/C [6]: 109 % of control

CCOC(=O)/C=C(\C)Nc1ccc(NC(C)=O)cc1
T/C (dose: 25.0 mg/kg/injection, schedule: Q01DX009 (ip), vehicle: water): 91 % of control
T/C (dose: 50.0 mg/kg/injection, schedule: Q01DX009 (ip), vehicle: water): 89 % of control
T/C [1]: 106 % of control
T/C (dose: 100.0 mg/kg/injection, schedule: Q01DX009 (ip), vehicle: water): 94 % of control
T/C [2]: 111 % of control
T/C (dose: 200.0 mg/kg/injection, schedule: Q01DX009 (ip), vehicle: water): 110 % of control
T/C (dose: 200.0 mg/kg/injection, schedule: Q04DX003 (ip), vehicle: water): 120 % of control
T/C (dose: 400.0 mg/kg/injection, schedule: Q01DX009 (ip), vehicle: water): 94 % of control
T/C (dose: 400.0 mg/kg/injection, schedule: Q04DX003 (ip), vehicle: water): 103 % of control

CCc1nnc2sc3c(Cl)c4nn5c(CC)nnc5sc4c(Cl)c3nn12
T/C [3]: 114 % of control
T/C [5]: 118 % of control
T/C [4]: 98 % of control

CC(=O)Nc1cc(F)c([N+](=O)[O-])cc1[N+](=O)[O-]
T/C (dose: 0.62 mg/kg/injection, schedule: Q01DX009 (ip), vehicle: saline): 115 % of control
T/C (dose: 1.25 mg/kg/injection, schedule: Q01DX009 (ip), vehicle: saline): 100 % of control
T/C [7]: 105 % of control
T/C (dose: 2.5 mg/kg/injection, schedule: Q01DX009 (ip), vehicle: saline): 300 % of control and 100 % of control
T/C [8]: 115 % of control
T/C (dose: 5.0 mg/kg/injection, schedule: Q01DX009 (ip), vehicle: saline): 300 % of control and 110 % of control
T/C (dose: 10.0 mg/kg/injection, schedule: Q01DX009 (ip), vehicle: Klucel (hydroxypropylcellulose) (HPC)): 100 % of control
T/C (dose: 10.0 mg/kg/injection, schedule: Q01DX009 (ip), vehicle: saline): 300 % of control and 105 % of control
T/C (dose: 20.0 mg/kg/injection, schedule: Q01DX009 (ip), vehicle: Klucel (hydroxypropylcellulose) (HPC)): 110 % of control
T/C (dose: 20.0 mg/kg/injection, schedule: Q01DX009 (ip), vehicle: saline): 95 % of control

CC1COCC(C)N1 (configuration not stated)
T/C (dose: 100.0 mg/kg/injection, schedule: Q04DX003 (ip), vehicle: saline): 106 % of control
T/C (dose: 200.0 mg/kg/injection, schedule: Q04DX003 (ip), vehicle: saline): 111 % of control
T/C (dose: 400.0 mg/kg/injection, schedule: Q04DX003 (ip), vehicle: saline): 106 % of control

N#Cc1ncc(C(Cl)(Cl)Cl)nc1Cl
T/C [3]: 110 % of control
T/C [9]: 105 % of control
T/C [5]: 120 % of control
T/C [10]: 115 % of control and 118 % of control
T/C [11]: 120 % of control

Cc1cc(C)[s+]s1
T/C (dose: 0.78 mg/kg/injection, schedule: Q01DX009 (ip), vehicle: water): 91 % of control
T/C (dose: 3.12 mg/kg/injection, schedule: Q01DX009 (ip), vehicle: water): 97 % of control
T/C (dose: 6.25 mg/kg/injection, schedule: Q01DX009 (ip), vehicle: water): 91 % of control

CCc1c(C(OC)OC)[nH]c(=S)[nH]c1=O
T/C [10]: 91 % of control
T/C [11]: 91 % of control
T/C [12]: 87 % of control

O=C1OC(c2ccccc2)CC1NCc1ccccc1 (configuration not stated)
T/C (dose: 100.0 mg/kg/injection, schedule: Q01DX001 (ip), vehicle: saline with Tween-80): 100 % of control
T/C (dose: 200.0 mg/kg/injection, schedule: Q01DX001 (ip), vehicle: saline with Tween-80): 100 % of control
T/C (dose: 400.0 mg/kg/injection, schedule: Q01DX001 (ip), vehicle: saline with Tween-80): 100 % of control

N/C(=N\O)c1cn(C2OC(CO)C(O)C2O)c2ncnc(N)c12 (configuration not stated)
T/C (dose: 0.6 mg/kg/injection, schedule: Q01DX009 (ip), vehicle: Klucel (hydroxypropylcellulose) (HPC)): 150 % of control
T/C (dose: 1.25 mg/kg/injection, schedule: Q01DX009 (ip), vehicle: Klucel (hydroxypropylcellulose) (HPC)): 168 % of control
T/C [7]: 154 % of control
T/C [8]: 172 % of control

CCCCOB(/C=C/Sc1ccccc1)OCCCC
T/C [5]: 120 % of control
T/C [10]: 115 % of control
T/C (dose: 132.0 mg/kg/injection, schedule: Q01DX009 (ip), vehicle: saline with Tween-80): 118 % of control
T/C [11]: 120 % of control
T/C (dose: 300.0 mg/kg/injection, schedule: Q01DX009 (ip), vehicle: saline with Tween-80): 122 % of control
T/C [12]: 110 % of control

ClCCCN1CCN(CCCCl)CC1
T/C (dose: 6.25 mg/kg/injection, schedule: Q01DX009 (ip), vehicle: distilled water + alcohol): 101 % of control
T/C (dose: 12.5 mg/kg/injection, schedule: Q01DX009 (ip), vehicle: distilled water + alcohol): 99 % of control
T/C (dose: 25.0 mg/kg/injection, schedule: Q01DX009 (ip), vehicle: distilled water + alcohol): 115 % of control
T/C (dose: 100.0 mg/kg/injection, schedule: Q01DX009 (ip), vehicle: distilled water + alcohol): 171 % of control

C=CCC1CCSC1=O (configuration not stated)
T/C (dose: 25.0 mg/kg/injection, schedule: Q04DX003 (ip), vehicle: saline with Tween-80): 100 % of control and 115 % of control
T/C [9]: 103 % of control and 106 % of control
T/C [10]: 101 % of control and 103 % of control and 119 % of control
T/C [11]: 108 % of control

C[C@]12CCCC[C@@H]1CC[C@@H]1[C@@H]2[C@@H](O)C[C@]2(C)[C@@H](O)CC[C@@H]12
T/C [3]: 95 % of control and 100 % of control
T/C [9]: 100 % of control
T/C (dose: 66.0 mg/kg/injection, schedule: Q04DX003 (ip), vehicle: saline with Tween-80): 95 % of control
T/C [5]: 95 % of control and 100 % of control
T/C [10]: 122 % of control
T/C (dose: 150.0 mg/kg/injection, schedule: Q04DX003 (ip), vehicle: saline with Tween-80): 90 % of control
T/C [4]: 90 % of control and 100 % of control
T/C [11]: 100 % of control

CCOc1c(Cl)cc(Cl)cc1C(c1ccc(Cl)cc1S(=O)(=O)O)c1cc(Cl)cc(Cl)c1OCC
T/C [13]: 108 % of control
T/C [3]: 116 % of control

CCOC(=O)C(C(=O)OCC)C1C=CCC1 (configuration not stated)
T/C (dose: 100.0 mg/kg/injection, schedule: Q01DX009 (ip), vehicle: Klucel (hydroxypropylcellulose) (HPC)): 100 % of control
T/C (dose: 100.0 mg/kg/injection, schedule: Q04DX003 (ip), vehicle: Klucel (hydroxypropylcellulose) (HPC)): 95 % of control
T/C (dose: 200.0 mg/kg/injection, schedule: Q01DX009 (ip), vehicle: Klucel (hydroxypropylcellulose) (HPC)): 104 % of control
T/C (dose: 200.0 mg/kg/injection, schedule: Q04DX003 (ip), vehicle: Klucel (hydroxypropylcellulose) (HPC)): 116 % of control
T/C (dose: 400.0 mg/kg/injection, schedule: Q01DX009 (ip), vehicle: Klucel (hydroxypropylcellulose) (HPC)): 109 % of control
T/C (dose: 400.0 mg/kg/injection, schedule: Q04DX003 (ip), vehicle: Klucel (hydroxypropylcellulose) (HPC)): 100 % of control

Cc1cccc(NC(=O)NCCOC(=O)OCCNC(=O)Nc2cccc(C)c2C)c1C
T/C [5]: 90 % of control
T/C [4]: 90 % of control
T/C [6]: 113 % of control

[NH-]C(CO)C(=O)O.[NH-]C(CO)C(=O)O.[Pt+2] (configuration not stated)
T/C (dose: 12.5 mg/kg/injection, schedule: Q01DX009 (ip), vehicle: distilled water + Tween-80): 115 % of control
T/C (dose: 25.0 mg/kg/injection, schedule: Q01DX009 (ip), vehicle: distilled water + Tween-80): 117 % of control
T/C (dose: 50.0 mg/kg/injection, schedule: Q01DX009 (ip), vehicle: distilled water + Tween-80): 115 % of control
T/C (dose: 100.0 mg/kg/injection, schedule: Q01DX009 (ip), vehicle: distilled water + Tween-80): 115 % of control

O=C(NC(=O)c1c(F)cccc1F)Nc1ncc(Br)cc1Br
T/C [13]: 90 % of control
T/C [3]: 97 % of control
T/C [5]: 96 % of control

O=C(c1ccccc1)C1(C(=O)c2ccccc2)c2ccccc2-c2ccccc21
T/C (dose: 50.0 mg/kg/injection, schedule: Q01DX005 (ip), vehicle: Klucel (hydroxypropylcellulose) (HPC)): 101 % of control
T/C (dose: 100.0 mg/kg/injection, schedule: Q01DX005 (ip), vehicle: Klucel (hydroxypropylcellulose) (HPC)): 104 % of control
T/C (dose: 200.0 mg/kg/injection, schedule: Q01DX005 (ip), vehicle: Klucel (hydroxypropylcellulose) (HPC)): 101 % of control
